Data reported in article PMC6600671, “Design and Synthesis of Indoleamine 2,3-Dioxygenase 1 Inhibitors and Evaluation of Their Use as Anti-Tumor Agents” (Molecules, 2019).

What was measured:
rhTDO = rhTDO (Homo sapiens, UniProt P48775); experiment: Enzyme-based TDO activity assay (kynurenine absorbance at 492 nm); format: biochemical; settings: for inhibition at 50 µM: shown when calculated IC50 >50 μM, read-out: TDO inhibition rate (%) at 50 μM; for inhibition at 50 µM / TDO IC50 or %: at 50 μM; for TDO IC50 or %: dash symbol
Procedure: (§1) The compounds on IDO1 or TDO activity were determined as follows: A standard reaction mixture (100 μL) containing 100 mM potassium phosphate buffer (pH 6.5), 40 mM ascorbic acid (neutralized with NaOH), 200 μg/mL catalase, 20 μM methylene blue and 0.05 μM rhIDO1 or rhTDO was added to the solution containing the substrate L-tryptophan and the test sample at a determined concentration. […] The yellow pigment derived from kynurenine was measured at 492 nm using a SYNERGY-H1 microplate reader (Biotek Instruments, Inc., Winooski, VT, USA). IC50 was analyzed using the GraphPad Prism 8.0 software (GraphPad Software, San Diego, CA, USA).

rhIDO1 = rhIDO1 (Homo sapiens, UniProt P14902); experiment: Enzyme-based IDO1 activity assay (kynurenine absorbance at 492 nm); format: biochemical; settings: for inhibition at 50 µM: shown when calculated IC50 >50 μM, read-out: IDO inhibition rate (%) at 50 μM; for IC50: rhIDO1 0.05 μM, 37 °C, 45 min, read-out: IDO IC50
Procedure: as §1

MCF7 = experiment: Cell viability MTT assay, 72 h; format: cell-based; settings: Homo sapiens; for inhibition at 50 µM: shown when calculated IC50 >50 μM, read-out: MCF7 inhibition rate (%) at 50 μM; for IC50: read-out: MCF7 IC50
Procedure: (§2) B16-F10 mouse melanoma cells, NCI-H460 human lung cancer cell line and MCF7 were obtained from American Type Culture Collection (ATCC). All the cell lines were cultured with Dulbecco’ modified Eagle’s medium (DMEM) (Invitrogen Corporation, Waltham, MA, USA) supplemented with 10% fetal bovine serum (FBS) (Hyclone, Waltham, MA, USA) and 1% penicillin streptomycin (Invitrogen) at 37 °C in 5% CO2.
(§3) The in vitro inhibitory effects of the compounds were measured by MTT assay. Briefly, different kinds of cells were plated in 96-well plates at a density of 2000/well. After attachment for overnight at 37 °C, the cells were treated with the compounds at various concentrations. After 72 h culture, the MTT reagent was added to each well, and plates were incubated for another 4 h at 37 °C. Then, the blue-purple crystal formamidine was dissolved in DMSO after discarding the supernatant. Samples were measured using microplate reader at a wavelength of 570 nm (Biotek Instruments, Inc., Winooski, VT, USA). IC50 values were calculated with GraphPad Prism 8.0 software.

[1] = test system: NCI-H460 human lung cancer cell line; experiment: Cell viability MTT assay, 72 h; format: cell-based; settings: for inhibition at 50 µM: shown when calculated IC50 >50 μM, read-out: H460 inhibition rate (%) at 50 μM
Procedure: as §2, §3

rhIDO1, sequence (P14902 whole entry): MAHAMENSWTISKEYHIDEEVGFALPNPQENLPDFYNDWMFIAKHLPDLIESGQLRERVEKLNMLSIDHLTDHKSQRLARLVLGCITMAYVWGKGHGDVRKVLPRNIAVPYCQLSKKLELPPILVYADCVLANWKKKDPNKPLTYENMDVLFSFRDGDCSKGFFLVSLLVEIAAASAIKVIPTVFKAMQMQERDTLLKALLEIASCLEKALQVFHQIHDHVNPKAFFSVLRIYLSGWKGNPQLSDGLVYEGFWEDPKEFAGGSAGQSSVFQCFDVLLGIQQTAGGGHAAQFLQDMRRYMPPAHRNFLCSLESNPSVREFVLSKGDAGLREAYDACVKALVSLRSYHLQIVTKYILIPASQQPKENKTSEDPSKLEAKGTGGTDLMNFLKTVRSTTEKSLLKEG
rhTDO, sequence (P48775 whole entry): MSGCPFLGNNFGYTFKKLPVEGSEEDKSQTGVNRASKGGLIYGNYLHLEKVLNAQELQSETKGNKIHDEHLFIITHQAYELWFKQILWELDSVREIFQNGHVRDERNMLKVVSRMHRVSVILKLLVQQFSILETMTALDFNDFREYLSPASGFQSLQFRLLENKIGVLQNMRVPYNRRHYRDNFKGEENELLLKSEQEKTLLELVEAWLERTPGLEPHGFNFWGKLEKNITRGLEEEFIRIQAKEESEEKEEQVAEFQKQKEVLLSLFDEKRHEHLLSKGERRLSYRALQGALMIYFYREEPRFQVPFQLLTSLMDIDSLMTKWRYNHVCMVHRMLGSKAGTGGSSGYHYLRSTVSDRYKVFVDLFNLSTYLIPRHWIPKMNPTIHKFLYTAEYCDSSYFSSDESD

Row | Compound | inhibition at 50 µM (rhTDO) [%] | inhibition at 50 µM (rhIDO1; at 50 μM) [%] | inhibition at 50 µM (MCF7) [%] | inhibition at 50 µM [1] [%] | also measured
1 | O=C1CC(Cc2c[nH]c3ccccc23)C(=O)N1 (racemic) [DX-02-02, (R/S) 3-((1H-indol-3-yl)methyl)pyrrolidine-2,5-dione] | 2.3 | 7.2 |  |  | 
2 | CCOC(=O)c1[nH]c2ccc(F)cc2c1C1CC(=O)NC1=O (racemic) [DX-02-03, (R/S) Ethyl 3-(2,5-dioxopyrrolidin-3-yl)-5-fluoro-1H-indole-2-carboxylate] | 15.4 | 21.6 | 22.1 | 21.7 | 
3 | O=C1CC(c2c(/C=N/O)[nH]c3ccc(F)cc23)C(=O)N1 (racemic) [DX-02-04, (R/S) (E)-3-(2,5-dioxopyrrolidin-3-yl)-5-fluoro-1H-indole-2-carbaldehyde oxime] | 14.5 | 40.2 |  |  | 
4 | O=C1CC(c2c(CNO)[nH]c3ccc(F)cc23)C(=O)N1 (racemic) [DX-02-05, (R/S) 3-(5-fluoro-2-((hydroxyamino)methyl)-1H-indol-3-yl)pyrrolidine-2,5-dione] | 16.3 | 12.5 |  |  | 
5 | CSc1[nH]c2ccc(F)cc2c1C1CC(=O)NC1=O (racemic) [DX-02-06, (R/S) 3-(5-fluoro-2-(methylthio)-1H-indol-3-yl)pyrrolidine-2,5-dione] | 19.6 | 22.6 | 19.9 | 30.1 | 
6 | C[S+]([O-])c1[nH]c2ccc(F)cc2c1C1CC(=O)NC1=O (racemic) [DX-02-07, (R/S) 3-(5-fluoro-2-(methylsulfinyl)-1H-indol-3-yl)pyrrolidine-2,5-dione] | 13.9 | 20.1 | 11 | 15.2 | 
7 | O=C(O)c1cc2ccccc2[nH]1 [DX-01-01] | 8.9 | 9.7 |  |  | 
8 | Cc1cccc2[nH]cc(C(=O)O)c12 [DX-01-02, 4-methyl-1H-indole-3-carboxylic Acid] | 10 | 2.4 |  | 39.2 | IC50 (MCF7): 43.1 µM
9 | Cc1ccc2[nH]cc(C(=O)O)c2c1 [DX-01-03, 5-methyl-1H-indole-3-carboxylic Acid] | 10.1 | 10.3 | 37.6 | 26.3 | 
10 | O=C(O)c1c[nH]c2ccc([N+](=O)[O-])cc12 [DX-01-04, 5-nitro-1H-indole-3-carboxylic Acid] | 6 | 3.3 | 24.3 | 15.1 | 
11 | O=C(O)c1c[nH]c2cc([N+](=O)[O-])ccc12 [DX-01-05, 6-nitro-1H-indole-3-carboxylic Acid] | 10.5 | 10.2 | 29.7 | 5.9 | 
12 | COc1ccc2[nH]cc(C(=O)O)c2c1 [DX-01-06, 5-methoxy-1H-indole-3-carboxylic Acid] | 8.4 | 6.2 | 25.7 | 11.2 | 
13 | O=C(O)c1c[nH]c2c(Br)cccc12 [DX-01-07, 7-bromo-1H-indole-3-carboxylic Acid] | 16.9 | 7.4 | 34.6 | 22.2 | 
14 | O=[N+]([O-])c1c[nH]c2ccccc12 [DX-01-08] | 3.2 | 10.9 |  |  | 
15 | N#Cc1c[nH]c2ccccc12 [DX-01-09] | 7.8 | 2.6 |  |  | 
16 | N#CCc1c[nH]c2ccccc12 [DX-01-10] | 8.9 | 2.1 |  |  | 
17 | COc1ccc2[nH]cc(CCNC(C)=O)c2c1 [DX-01-11] | 3.8 |  |  |  | IDO IC50 or % (rhIDO1; at 50 μM, dash symbol): -
18 | O=C(NO)c1c[nH]c2ccccc12 [DX-01-12] | 33.9 | 47.1 |  |  | 
19 | O/N=C/c1c[nH]c2ccccc12 [DX-01-13, (E) 1H-indole-3-carbaldehyde Oxime] | 8.1 | 19.7 | 10.1 | 23.1 | 

Row | Compound | inhibition at 50 µM (rhTDO) [%] | inhibition at 50 µM (rhIDO1; at 50 μM) [%] | inhibition at 50 µM (MCF7) [%] | inhibition at 50 µM [1] [%] | also measured
20 | ONCc1c[nH]c2ccccc12 [DX-01-14, N-((1H-indol-3-yl)methyl)hydroxylamine] | 38.2 |  |  |  | IDO1 inhibition, in words (rhIDO1): moderate; IC50 (rhIDO1): 11.1 µM
21 | Cc1ccccc1-c1ccc2[nH]cc(CNO)c2c1 [DX-01-15, N-((5-(o-tolyl)-1H-indol-3-yl)methyl)hydroxylamine] | 35.4 |  |  |  | IDO1 inhibition, in words (rhIDO1): moderate; IC50 (rhIDO1): 21.3 µM
22 | O/N=C/c1cc2ccccc2[nH]1 [DX-01-16, (E)-1H-indole-2-carbaldehyde Oxime] | 19.7 |  | 20.9 | 44.5 | IDO1 inhibition, in words (rhIDO1): moderate; IC50 (rhIDO1): 23.2 µM
23 | ONCc1cc2ccccc2[nH]1 [DX-01-17, N-((1H-indol-2-yl)methyl)hydroxylamine] | 42.2 |  |  |  | IDO1 inhibition, in words (rhIDO1): moderate; IC50 (rhIDO1): 17.7 µM
24 | O=c1[nH]c2ccccc2o1 [DX-01-18] |  | 5.4 |  |  | TDO IC50 or % (rhTDO; Table 1): -
25 | N#CCc1nc2ccccc2o1 [DX-01-20] | 3.8 | 15.7 |  |  | 
26 | N#CCc1nc2ccccc2[nH]1 [DX-01-22] | 4.5 | 13.2 |  |  | 
27 | O=C1C/C(=C\c2c[nH]c3ccccc23)C(=O)N1 [DX-02-01, (E)-3-((1H-indol-3-yl)methylene)pyrrolidine-2,5-dione] |  | 6.3 |  |  | TDO IC50 or % (rhTDO; Table 2): -
28 | O/N=C/c1ccccc1-c1c[nH]cn1 [DX-03-02, (E) 2-(1H-imidazol-4-yl)benzaldehyde Oxime] | 13.9 | 24.2 |  |  | 
29 | ONCc1ccccc1-c1c[nH]cn1 [DX-03-03, N-(2-(1H-imidazol-4-yl)benzyl)hydroxylamine] | 11.1 | 19.4 | 22.2 | 5 | 
30 | O/N=C/c1ccccc1-c1nn[nH]n1 [DX-03-04, (E) 2-(2H-tetrazol-5-yl)benzaldehyde Oxime] | 20.3 | 11.9 | 34.7 | 12.7 | 
31 | O/N=C/c1cc(Cl)ccc1-c1c[nH]cn1 [DX-03-05, (E) 5-chloro-2-(1H-imidazol-4-yl)benzaldehyde Oxime] | 12.1 | 31.3 |  |  | 
32 | O/N=C/c1c(F)cccc1-c1c[nH]cn1 [DX-03-06, (E) 2-fluoro-6-(1H-imidazol-4-yl)benzaldehyde Oxime] | 12.9 | 25.6 |  |  | 
33 | COc1ccc(-c2c[nH]cn2)c(/C=N/O)c1 [DX-03-07, (E) 2-(1H-imidazol-4-yl)-5-methoxybenzaldehyde Oxime] | 15.1 | 33.5 |  |  | 
34 | O/N=C/c1cc(-c2ccccc2C(F)(F)F)ccc1-c1c[nH]cn1 [DX-03-08, (E) 4-(1H-imidazol-4-yl)-2′-(trifluoromethyl)-[1,1′-biphenyl]-3-carbaldehyde Oxime] | 11.1 | 15.6 |  |  | 
35 | O/N=C/c1ccc(-c2ccccc2)cc1-c1c[nH]cn1 [DX-03-09, (E) 3-(1H-imidazol-4-yl)-[1,1′-biphenyl]-4-carbaldehyde Oxime] | 6.4 | 5.3 | 37.7 | 40.5 | 
36 | FC(F)(F)c1ccc(COc2ccccc2-c2csnn2)cc1 [DX-03-10, 4-(2-((4-(trifluoromethyl)benzyl)oxy)phenyl)-1,2,3-thiadiazole] | 21.5 | 13.2 | 24.7 | 7.6 | 
37 | NS(=O)(=O)NCCCOc1ccccc1-c1c[nH]cn1 [DX-03-11, N-(3-(2-(1H-imidazol-5-yl)phenoxy)propyl)-aminesulfonamide] | 38.2 |  |  |  | TDO inhibition, in words (rhTDO): marginal; IC50 (rhIDO1): 2.4 µM
38 | CC(=O)O[C@H]1C(=O)[C@@]2(C)[C@H]([C@H](OC(=O)c3ccccc3)[C@]3(O)C[C@H](OC(=O)[C@H](O)[C@@H](NC(=O)c4ccccc4)c4ccccc4)C(C)=C1C3(C)C)[C@]1(OC(C)=O)CO[C@@H]1C[C@@H]2O [Taxol, reference compound] |  |  |  |  | IC50 (MCF7): 0.015 µM; IC50 ([1]; read-out: H460 IC50): 0.006 µM
